Source: patent US5695970A, “Glucan lyase producing 1,5-anhydrofructose” (priority 1992, dated 1997)
Entries after “also recorded” stand apart in the source; their conditions may differ.

What was measured:
[1] = system: α-1,4-glucan lyase; experiment: Substrate specificity of α-1,4-glucan lyase (release of 1,5-anhydrofructose, DNS method, 15 min); format: biochemical, Gracilariopsis lemaneiformis; settings: for substrate inhibition: higher substrate concentrations, 10 mg ml^-1 compared with 2 and 4 mg ml^-1
Method: When amylopectin was used as a substrate, the activity reached maximum 8 mg ml^-1 and then decreased slightly at 20 mg ml^-1. The same results were obtained with soluble starch and maltoheptaose. When maltotriose and maltose were used as substrates, the activity reached maximum at 2 mg ml^-1 and 6 mg ml^-1, respectively. Substrate inhibition became evident at higher concentrations, especially in the case of maltotriose. […] Generally, the inhibition degree decreased with the increase in DP number (Degree of Polymerization). When the activity measured at 10 mg ml^-1 was compared at 2 mg ml^-1 and 4 mg ml^-1, substrate inhibition could be clearly seen among the maltosaccharides of DP 3-5. In maltohexaose, the substrate inhibition was very low and was none in maltoheptaose. Among the maltosaccharides, maltotetraose and maltopentaose were the poorest substrates.
With PNPG1 (p-nitrophenyl-α-D-glucoside), the artificial substrate of α-glucosidase, reaction rate was the lowest.
Substrate Specificity of α-1,4-Glucan lyase.
The concentration of various substrates in the reaction mixture
was 10 mg ml^-1 except PNPG1, PNPG2, PNPG7, which was 2 mM.
The incubation time was 15 min. The degrading rate of maltoheptaose
was 84 μmol min^-1. mg^-1 protein.
(§1) The reaction mixture for the assay of α-1,4-glucan lyase was composed of 240 μl 62.5 mM Mops-NaOH containing 6 mg soluble starch (pH 6.2), the enzyme preparation and distilled water to a final volume of 300 μl. The reaction was carried out at 30° C. for 10-30 min. Liberated 1,5-anhydrofructose was determined by monitoring the absorbance at 546 nm after the addition of 3,5-dinitrosalicylic acid reagent. Soluble starch in the reaction mixture may be replaced by other substrates and the final substrate concentration may be varied as indicated in the text. The reaction time and enzyme concentration used in enzyme activity assay have been chosen to ensure the linearity of the reaction rate. One unit of α-1,4-glucan lyase activity is defined as the amount of enzyme which liberates 1μmol of 1,5-anhydrofructose min^-1 under the conditions described above.

[2] = system: α-1,4-glucan lyase; experiment: Inhibition studies of α-1,4-glucan lyase activity; format: biochemical, Gracilariopsis lemaneiformis; settings: for inhibition of the degradation of maltose: 3 mg/ml polysaccharide; for inhibition of enzymic activity: 0.1M
Method: as §1

[3] = system: α-1,4-glucan lyase; experiment: Elution of α-1,4-glucan lyase from the starch column by glucans; format: binding, Gracilariopsis lemaneiformis; settings: glucan 8 mg ml^-1; column 1 ml, 5 ml eluate; recovery with amylopectin = 100%
Method: In these experiments, as much as 5 times of the column volume was collected. At high pH, for example, 50 mM bicine-NaOH (pH 8.2), the binding of the enzyme onto the starch column was loose and it was eluted by subsequent washing with the same buffer. Neither ConA-Sepharose nor cycloheptaamylose-Sepharose 6B was effective for the purification of the enzyme because of low recovery.
The efficiency of various glucans (8 mg ml^-1) on the elution of
α-1,4-glucan lyase from the starch column. The column volume
was 1 ml and 5 ml eluate was pooled. The recovery of
α-1,4-glucan lyase eluted by amylopectin was used as 100%.
Gracilariopsis lemaneiformis (originally collected from China), 30 g, was sampled directly from the culture cylinder and was rinsed briefly with deionized water and blotted dry with paper tissue. The following operations were carried out at 0°-4° C. The thalli were cut to pieces with scissors and pulverized under liquid nitrogen. To 1 g alga powder was added 3 volumes of buffer A (50 mM citrate-NaOH, pH 6.6), filtered through two-layer cloth and centrifuged at 36,600×g for 10 min. The supernatant (cell-free extract) was loaded onto a starch column (4.1×1.5 cm) pre-equilibrated with buffer A. After loading, the column was extensively washed with 4 volumes of buffer A, volumes of buffer A containing 1M NaCl, 1 volume of buffer A, 1 volume of buffer B (50 mM imidazole-HCl, pH 6.6) in a flow speed of 24 ml h^-1. α-1,4-Glucan lyase was eluted with buffer B containing 10 mg ml^-1 amylopectin in a fraction size of 3.5 ml. To separate α-1,4-glucan lyase from the amylopectin, the active fractions of the eluate were pooled and applied onto a Q-Sepharose column (2.6×5 cm). The column was pre-equilibrated and later washed with buffer B. α-1,4-Glucan lyase was eluted with buffer B containing 0.7M NaCl. Active fractions were pooled and concentrated on a Centriprep CP30 (Amicon, USA) with a molecule weight cutoff of 30,000 and applied to a Sephacryl S-200 column (2.6×80 cm) pre-equilibrated and eluted with buffer A containing 0.2M NaCl. The flow speed was 60 ml h^-1 with a fraction size of 3.5 ml per tube. Active fractions were collected and concentrated again by using centriprep CP30.

[4] = system: α-1,4-glucan lyase; experiment: Reaction mode: complete degradation of substrates by the lyase and final products; format: biochemical, Gracilariopsis lemaneiformis; settings: for time needed for a complete degradation: enzyme 6 μg protein per ml, 30° C.
Method: In an enzyme concentration of 6 μg protein per ml, at 30° C., the time needed for a complete degradation of 1% maltose solution was 1 h, for 2% maltose solution, 3 h, for 5% maltose solution, 10-24 h, for 2% maltoheptaose, 10-24 h. This is in sharp contrast to many polysaccharides' depolymerization enzymes, whose reaction stops with the accumulation of products or with the decrease in substrate size.
When maltoheptaose was used as a substrate, the final products are 1,5-anhydrofructose and glucose and their ratio is 6:1. The intermediate products are a mixture of maltosaccharides with a DP number between 2-6 during the process of the reaction. With the increase of reaction time, the DP number of the maltosaccharides decreased and finally all the maltosaccharides disappeared. When maltose was used as a substrate, the ratio of 1,5-anhydrofructose to glucose was 1:1. With the increase of DP number, the yield of glucose decreased, while the yield of 1,5-anhydrofructose increased. When a linear chain of a α-1,4-glucan is long enough, the yield of 1,5-anhydrofructose can be nearly 100%.

[5] = system: α-1,4-glucan lyase; experiment: Substrate specificity of α-1,4-glucan lyase, long term incubation (24 h), continuation of Table IV; format: biochemical, Gracilariopsis lemaneiformis
Method: The incubation time was 24 h.
as §1

[6] = substrate 2 mM, incubation 15 min
[7] = substrate 10 mg ml^-1, incubation 15 min

O=[N+]([O-])c1ccc(O[C@H]2O[C@H](CO)[C@@H](O[C@H]3O[C@H](CO)[C@@H](O)[C@H](O)[C@H]3O)[C@H](O)[C@H]2O)cc1 [PNPG2, p-nitrophenyl-α-D-maltoside]
Activity (% of Maltoheptaose) [1, 6]: 22.5%

O=[N+]([O-])c1ccc(O[C@H]2O[C@H](CO)[C@@H](O)[C@H](O)[C@H]2O)cc1 [PNPG1, p-nitrophenyl-α-D-glucoside]
Activity (% of Maltoheptaose) [1, 6]: 0.113%

glycogen
Activity (% of Maltoheptaose) [1, 7]: 77.6%
inhibition of the degradation of maltose ([2]; maltose as substrate): ~47%
Elution Efficiency [3]: 87.1%

OC[C@H]1OC(O)[C@@H](O)[C@@H](O)[C@@H]1O (some centres unmarked) [mannose]
inhibition of enzymic activity ([2]; amylopectin as substrate): no inhibition
inhibition of enzymic activity ([2]; maltose as substrate): no inhibition
conversion of monosaccharide to 1,5-anhydrofructose by the lyase [4]: can not convert

pullulan
activity of the lyase with the substrate (in words) ([5]; long term incubation at 30° C.): no detectable activity; also recorded: little or no activity
Product released ([5]; substrate 4 mg ml^-1, 1.64 μg enzyme, 24 h): 0 nmol
inhibition of the degradation of maltose ([2]; maltose as substrate): did not inhibit
Elution Efficiency [3]: 32.3%

β-limit dextrin
Activity (% of Maltoheptaose) [1, 7]: 22.7%

O=C(CO)[C@@H](O)[C@H](O)[C@H](O)CO [fructose]
inhibition of enzymic activity ([2]; amylopectin as substrate): no inhibition
inhibition of enzymic activity ([2]; maltose as substrate): no inhibition
conversion of monosaccharide to 1,5-anhydrofructose by the lyase [4]: can not convert

floridean starch
Activity (% of Maltoheptaose) [1, 7]: 61.9%

OC[C@H]1OC(O)[C@H](O)[C@@H](O)[C@H]1O (some centres unmarked) [galactose]
inhibition of enzymic activity ([2]; amylopectin as substrate): no inhibition
inhibition of enzymic activity ([2]; maltose as substrate): no inhibition
conversion of monosaccharide to 1,5-anhydrofructose by the lyase [4]: can not convert

OC[C@H]1O[C@H](O[C@H]2[C@H](O)[C@@H](O)[C@@H](O[C@H]3[C@H](O)[C@@H](O)[C@@H](O[C@H]4[C@H](O)[C@@H](O)[C@@H](O[C@H]5[C@H](O)[C@@H](O)C(O)O[C@@H]5CO)O[C@@H]4CO)O[C@@H]3CO)O[C@@H]2CO)[C@H](O)[C@@H](O)[C@@H]1O (some centres unmarked) [Maltopentaose, maltopentaose]
substrate inhibition [1]: showed substrate inhibition
Activity (% of Maltoheptaose) [1, 7]: 36.6%

soluble starch
Activity (% of Maltoheptaose) [1, 7]: 100.2%

OC[C@H]1O[C@H](O[C@H]2[C@H](O)[C@@H](O)[C@H](O)O[C@@H]2CO)[C@H](O)[C@@H](O)[C@@H]1O [Maltose, maltose]
substrate concentration at which the activity reached maximum [1]: 6 mg/mL
substrate inhibition [1]: showed substrate inhibition
Activity (% of Maltoheptaose) [1, 7]: 66.7%
Elution Efficiency [3]: 56.4%
time needed for a complete degradation ([4]; 1% solution): 1 h
time needed for a complete degradation ([4]; 2% maltose solution): 3 h
time needed for a complete degradation ([4]; 5% solution): 10 to 24 h

OC[C@H]1O[C@H](O[C@H]2[C@H](O)[C@@H](O)[C@@H](O[C@H]3[C@H](O)[C@@H](O)[C@@H](O[C@H]4[C@H](O)[C@@H](O)[C@@H](O[C@H]5[C@H](O)[C@@H](O)[C@@H](O[C@H]6[C@H](O)[C@@H](O)C(O)O[C@@H]6CO)O[C@@H]5CO)O[C@@H]4CO)O[C@@H]3CO)O[C@@H]2CO)[C@H](O)[C@@H](O)[C@@H]1O (some centres unmarked) [Maltohexaose, maltohexaose]
substrate inhibition [1]: very low
Activity (% of Maltoheptaose) [1, 7]: 74.6%

OC[C@H]1O[C@H](O[C@H]2[C@H](O)[C@@H](O)[C@@H](O[C@H]3[C@H](O)[C@@H](O)[C@@H](O[C@H]4[C@H](O)[C@@H](O)[C@@H](O[C@H]5[C@H](O)[C@@H](O)[C@@H](O[C@H]6[C@H](O)[C@@H](O)[C@@H](O[C@H]7[C@H](O)[C@@H](O)C(O)O[C@@H]7CO)O[C@@H]6CO)O[C@@H]5CO)O[C@@H]4CO)O[C@@H]3CO)O[C@@H]2CO)[C@H](O)[C@@H](O)[C@@H]1O (some centres unmarked) [Maltoheptaose, maltoheptaose]
substrate inhibition [1]: none
Activity (% of Maltoheptaose) [1, 7]: 100.0%
degrading rate [1, 7]: 84 μmol min^-1. mg^-1 protein
Elution Efficiency [3]: 94.3%
time needed for a complete degradation ([4]; 2% maltoheptaose): 10 to 24 h

amylose
Activity (% of Maltoheptaose) [1, 7]: 100.4%

OC[C@H]1O[C@H](O[C@H]2[C@H](O)[C@@H](O)[C@@H](O[C@H]3[C@H](O)[C@@H](O)[C@@H](O[C@H]4[C@H](O)[C@@H](O)C(O)O[C@@H]4CO)O[C@@H]3CO)O[C@@H]2CO)[C@H](O)[C@@H](O)[C@@H]1O (some centres unmarked) [Maltotetraose, maltotetraose]
substrate inhibition [1]: showed substrate inhibition
Activity (% of Maltoheptaose) [1, 7]: 27.8%
Elution Efficiency [3]: 65.7%

OC[C@H]1OC(O)[C@H](O)[C@@H](O)[C@@H]1O (some centres unmarked) [Glucose, glucose]
inhibition of enzymic activity ([2]; amylopectin as substrate): no inhibition
inhibition of enzymic activity ([2]; maltose as substrate): around 22%
product inhibition: effect on enzyme reaction rate ([2]; products accumulating during the enzyme reaction): negligible effect
Elution Efficiency [3]: 0%
conversion of monosaccharide to 1,5-anhydrofructose by the lyase [4]: can not convert

amylopectin
substrate concentration at which the activity reached maximum [1]: 8 mg/mL
Activity (% of Maltoheptaose) [1, 7]: 94.1%
inhibition of the degradation of maltose ([2]; maltose as substrate): around 67%
type of inhibition ([2]; maltose as substrate): mixed competive/non-competive
inhibition of the algal enzyme (in words) ([2]; summary statement, maltose as substrate): inhibited
Elution Efficiency [3]: 100%

OC[C@H]1O[C@H](O[C@H]2[C@H](O)[C@@H](O)[C@@H](O[C@H]3[C@H](O)[C@@H](O)C(O)O[C@@H]3CO)O[C@@H]2CO)[C@H](O)[C@@H](O)[C@@H]1O (some centres unmarked) [Maltotriose, maltotriose]
substrate concentration at which the activity reached maximum [1]: 2 mg/mL
substrate inhibition [1]: showed substrate inhibition
Activity (% of Maltoheptaose) [1, 7]: 39.1%

O=[N+]([O-])c1ccc(O[C@H]2O[C@H](CO)[C@@H](O[C@H]3O[C@H](CO)[C@@H](O[C@H]4O[C@H](CO)[C@@H](O[C@H]5O[C@H](CO)[C@@H](O[C@H]6O[C@H](CO)[C@@H](O[C@H]7O[C@H](CO)[C@@H](O[C@H]8O[C@H](CO)[C@@H](O)[C@H](O)[C@H]8O)[C@H](O)[C@H]7O)[C@H](O)[C@H]6O)[C@H](O)[C@H]5O)[C@H](O)[C@H]4O)[C@H](O)[C@H]3O)[C@H](O)[C@H]2O)cc1 [PNPG7, p-nitrophenyl-α-D-maltoheptaoside]
Activity (% of Maltoheptaose) [1, 6]: 100.0%
